System: L. infantum
Test: Clinical study in dogs infected with L. infantum: Overall Biological Score
Assay type: in vivo
Design: key: additive score of severity of hematology/chemistry changes
Details: samples collected on D16 (printed in Day 28 column), Group 1 Block 8 dog removed for toxicity; Glucantime 100 mg/kg dNMA SC once daily

## meglumine antimoniate [Glucantime]
  Overall Biological Score: 5^2
